For one assay, the system named is activated microglia. Nature of the assay: Glutamate concentration in neuron culture medium (glutamate released from activated microglia), colorimetric assay. As to conditions: 24 h; for extracellular glutamate concentration: versus no drug (TNF). The class given is cell-based, mouse. As to the method:
(§1) Mouse primary microglia were isolated from primary mixed glial cell cultures (obtained from newborn C57BL/6J mice brains) by the ‘shaking off’ method on the 14th culture day or later (Suzumura, A. et al. MHC antigen expression on bulk isolated macrophage-microglia from newborn mouse brain: induction of 1a antigen expression by gamma-interferon. J. Neuroimmunol. 15, 263-278 (1987)).
(§2) Microglia were cultured with the culture medium (approximately 5×10^4 cells/well, Neuron Medium (manufactured by Sumitomo Bakelite Co., LTD.) administered with 1 μg/ml of LPS or 100 ng/ml of cytokines (IL-1β, IL-6, IL-10, IFN-γ, or TNF-α), respectively. Microglia were incubated under 100% humidity and 5% CO2 at 37° C. for 24 hours. Note that as a control, microglia were cultured similarly except that no cytokine was added.
Neurons in a 24-well plate (5×10^4 cells/well) were incubated with 500 μl of conditioned medium of microglia activated as above. Neurons were administered similarly non-activated microglia conditioned medium to serve as a control for the indirect stimulation group. […]
In the present example, the amount of glutamate released from microglia stimulated with various cytokines, intracellular ATP concentration and mitochondrial damage in neurons incubated with conditioned medium were measured. […]
After incubation for 24 hours as above, the concentration of glutamate in the conditioned medium of each neuronal culture well was measured using Glutamate Assay Kit colorimetric assay (manufactured by Yamasa Corporation) according to the protocol thereof, measuring the absorption at 600 nm in a multiplate reader. […]
The various neurons prepared as above were cultured for 24 hours, then, glutamate concentration, the numbers of neurons with neuritic beading degeneration and dead neurons were measured for neurons in each neuronal culture well. Quantification of glutamate concentration was carried out similarly to Example 2, measurements of the numbers of neurons with neuritic beading degeneration and dead neurons were carried out similarly to Example 1. […]

The test system of assay [1] is ischemia-induced delayed neuronal cell death model. Description: Ischemia-induced delayed neuronal cell death model. The class given is in vivo, Mongolian gerbils. As to conditions: for delayed neuronal cell death (micrographs of hippocampal CA1, FIG. 15) / number of surviving neurons per 100 μm in the hippocampal CA1 region: 7 days after ischemia; for number of surviving neurons per 100 μm in the hippocampal CA1 region: p<0.001 versus control. Here is the method:
In the present example, the effect of gap junction inhibitor and glutaminase inhibitor on neuronal cell death was evaluated using ischemia-induced delayed neuronal cell death model. Note that all protocols were approved by the Animal Experiment Committee of Nagoya University. Note that the animal model in the present example corresponds to a model of ischemic disorder, which is a nervous system disease.
According to reference by Imai et al. (Imai F, Sawada M, Suzuki H, Zlokovic B V, Kojima J, Kuno S, Nagatsu T, Nitatori T, Uchiyama Y, Kanno T., Exogenous microglia enter the brain and migrate into ischemic hippocampal lesions. et al. Neuroscience Letter. 272 (2): 127-130. 1999)□ adult male Mongolian gerbils, 10-12 weeks old and weighing approximately 70 g, were anesthetized with sevoflurane maintaining rectal temperature at 37° C. Global forebrain ischemia was produced transiently by occluding both common carotid arteries for 5 minutes using aneurysm clips.
Administration of the gap junction inhibitor carbenoxolone (CBX) was carried out in the following three groups. That is to say, the doses were 20 mg/kg body weight (CBX1), 2 mg/kg body weight (CBX1/10) and 0.2 mg/kg body weight (CBX1/100). Administration of the glutaminase inhibitor 6-diazo-5-oxo-L norleucine (DON) was carried out in the following three groups. That is to say, the doses were 1.6 mg/kg body weight (DON1), 0.16 mg/kg body weight (DON1/10) and 0.016 mg/kg body weight (DON1/100). CBX or DON was administered intraperitoneally every other day from the day of ischemia. Note that control animals were injected with the equal volume of phosphate-buffered saline (PBS).
Seven days after ischemia, gerbils were anesthetized and transcardically perfused with 4% paraformaldehyde in PBS. The brains were removed, embedded in O.C.T. compound (manufactured by Sakura Finetech) and then frozen in liquid nitrogen. Frozen sections were prepared with a cryostat (8 μm thick), were mounted onto a slide glass and were stained with haematoxylin and eosin. To assess the effect of drug treatment on delayed neuronal death, the number of surviving neurons per 100 μm in the hippocampal CA1 region was counted under a microscope.

In assay [2] the test system is experimental autoimmune encephalomyelitis (EAE) model. Description: MOG-induced experimental autoimmune encephalomyelitis (EAE) model. It counts as in vivo, C57BL/6J mice. As to conditions: for EAE onset day (EAE clinical score becomes 1 or greater) / number of severe sick days (EAE clinical score four or greater): p<0.05.
In assay [3] the test system is mouse cerebral cortex primary neurons. Nature of the assay: Dead neurons (propidium iodide dye-exclusion) in neurons incubated with activated microglia conditioned medium. It counts as cell-based. As to conditions: 24 h. Here is the method:
as §1
In addition, mouse cerebral cortex primary neurons were prepared from the cerebral cortices of C57BL/6J mice at embryonic 17th day, and were plated on poly-ethyleneimine (PEI)-coated cover slips. […]
(§3) The various neurons obtained as above were cultured for 24 hours, then, neurons in each well were measured for both the number of neurons with neuritic beading degeneration and the number of dead neurons. […] The ratio of neurons with neuritic beading degeneration was calculated as a percentage of total neurons. Note that neurons in duplicate wells were assessed blindly in three independent trials. In addition, the number of dead neurons was assessed by the dye-exclusion method with propidium iodide (PI). […] The ratio of dead neurons was calculated as a percentage of PI-positive cells among total neurons.

For assay [4] the test system is unchanged. Description: Neuritic beading degeneration in neurons incubated with activated microglia conditioned medium. It counts as cell-based. As to conditions: for number of neurons with neuritic beading degeneration: 24 h. As to the method:
as §1
In addition, mouse cerebral cortex primary neurons were prepared from the cerebral cortices of C57BL/6J mice at embryonic 17th day, and were plated on poly-ethyleneimine (PEI)-coated cover slips. Neurons were used at 10th to 13th culture day (Takeuchi et al. Neuritic beading induced by activated microglia is an early feature of neuronal dysfunction toward neuronal death by inhibition of mitochondrial respiration and axonal transport. J. Biol. Chem. 280, 10444-10454 (2005)).
as §2
Neurons in a 24-well plate (5×10^4 cells/well) were incubated with 500 μl of conditioned medium of microglia activated as above. […]
as §3

The test system is the same in assay [5]. Description: Neuronal intracellular ATP concentration, chemiluminescent method. The class given is cell-based. As to conditions: conditioned medium of microglia treated with 100 ng/ml TNF-α; 24 h. Here is the method: (§4) In the present example, the amount of glutamate released from microglia stimulated with various cytokines, intracellular ATP concentration and mitochondrial damage in neurons incubated with conditioned medium were measured. […] The evaluations were carried out by the following methods.
After incubation of the various neurons obtaine for 24 hours as above, intracellular ATP in each neuronal culture well was measured using AposSENSOR Cell Viability Assay Kit (manufactured by Bio Vision) according to the protocol thereof, by the chemiluminescent method. ATP concentration was calculated as a percentage of control.

For another assay, the system named is connexin-32 (C×32). Description: Microglial cell surface expression of connexin-32 by flow cytometry. It counts as cell-based, mouse. As to conditions: microglia stimulated with 100 ng/ml TNF-α, 24 h. As to the method: In the present example, an analysis of LPS- or TNF-α-stimulated microglial cell surface expression of connexin-32 (C×32), which is a major constitutive component of gap junction, was carried out with a flow cytometer. The preparation of microglia was carried out similarly to Example 1, and microglia activation was carried out similarly to Example 4. To Detect C×32 anti-mouse C×32 antibody (manufactured by Chemicon) was used.
Sequence of connexin-32 (C×32) (P28230 whole entry): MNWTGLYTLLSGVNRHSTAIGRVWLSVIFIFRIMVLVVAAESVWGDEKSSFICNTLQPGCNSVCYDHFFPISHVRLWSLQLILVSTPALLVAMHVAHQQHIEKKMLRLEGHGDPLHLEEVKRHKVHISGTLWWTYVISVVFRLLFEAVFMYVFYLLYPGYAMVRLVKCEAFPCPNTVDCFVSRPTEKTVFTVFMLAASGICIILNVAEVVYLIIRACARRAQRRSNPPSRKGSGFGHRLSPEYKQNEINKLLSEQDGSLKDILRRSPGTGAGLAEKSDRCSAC

For assay [6], the system named is mouse cerebral cortex primary neurons. Nature of the assay: Neuronal mitochondrial damage, MTS assay. As to conditions: conditioned medium of microglia treated with 100 ng/ml TNF-α; 24 h. It counts as cell-based. As to the method:
as §4
After incubation for 24 hours as above, the extent of neuronal mitochondria damage in each neuronal culture well was measured using CellTiter96 Aqueous One Solution assay (manufactured by Promega) according to the protocol, performing the MTS method, measuring the absorption at 490 nm in a multiplate reader. Note that the assays were carried out in six independent trials.

Setting [7] is: 100 μM CBX with activated microglia conditioned medium.
The mark [8] stands for this setting: CBX 0.2, 2, 20 mg/kg i.p. every other day.
Setting [9] is: CBX1/10: 2 mg/kg i.p. every other day.
Where [10] appears, read: 1 mM DON with activated microglia conditioned medium.
Where [11] appears, read: DON 0.016, 0.16, 1.6 mg/kg i.p. every other day.
The mark [12] stands for this setting: DON1: 1.6 mg/kg i.p. every other day.

In the case of `CC1(C)[C@@H](OC(=O)CCC(=O)O)CC[C@]2(C)[C@H]3C(=O)C=C4[C@@H]5C[C@@](C)(C(=O)O)CC[C@]5(C)CC[C@@]4(C)[C@]3(C)CC[C@@H]12` [CBX, carbenoxolone disodium], the extracellular glutamate concentration result in the assay on activated microglia (setting [7]) is on record as “reduced to the control level”. Besides, the “delayed neuronal cell death (micrographs of hippocampal CA1, FIG. 15)” value in assay [1] (CBX 0.2, 2, 20 mg/kg body weight i.p. every other day from day of ischemia) is “clearly inhibited”. For the same molecule, in assay [1] (setting [8]), the “dose dependence of decrease in neuronal death” value is “dose-dependent manner” and the “number of surviving neurons per 100 μm in the hippocampal CA1 region” value is given as “significantly protected”. In addition, the “EAE clinical symptoms (clinical score course, FIG. 17)” value in assay [2] (CBX 0.2, 2, 20 mg/kg i.p. every other day from day of immunization) was “inhibited”. Besides, in assay [2] (setting [9]), the peak clinical score result is recorded as “significantly decreased”, the “EAE onset day (EAE clinical score becomes 1 or greater)” value is “significantly delayed” and the “number of severe sick days (EAE clinical score four or greater)” value was “significantly reduced”. For the same molecule, the “number of dead neurons” value in assay [3] (setting [7]) was “inhibitory action”. For the same molecule, in assay [4] (setting [7]), the “number of neurons with neuritic beading degeneration” value is reported as “inhibitory action”.

Turning to `[N-]=[N+]=CC(=O)CC[C@H](N)C(=O)O` [DON, 6-diazo-5-oxo-L-norleucine], the extracellular glutamate concentration entry with activated microglia (setting [10]) is “reduced to the control level”. Moreover, the “delayed neuronal cell death (micrographs of hippocampal CA1, FIG. 15)” value in assay [1] (DON 0.016, 0.16, 1.6 mg/kg body weight i.p. every other day from day of ischemia) was “clearly inhibited”. In addition, in assay [1] (setting [11]), the “dose dependence of decrease in neuronal death” value is “dose-dependent manner” and the “number of surviving neurons per 100 μm in the hippocampal CA1 region” value is on record as “significantly protected”. The “EAE clinical symptoms (clinical score course, FIG. 17)” value in assay [2] (DON 0.016, 0.16, 1.6 mg/kg i.p. every other day from day of immunization) was “inhibited”. Further, in assay [2] (setting [12]), the “EAE onset day (EAE clinical score becomes 1 or greater)” value is given as “significantly delayed” and the “number of severe sick days (EAE clinical score four or greater)” value was “significantly reduced”. Moreover, in assay [3] (setting [10]), the “number of dead neurons” value was “inhibitory action”. Besides, in assay [4] (setting [10]), the “number of neurons with neuritic beading degeneration” value is reported as “inhibitory action”.

As to TNF-α, the “neuronal intracellular ATP concentration” value in assay [5] is “significantly low”. Further, the “glutamate concentration in neuron culture medium” value in the assay on activated microglia (conditioned medium of microglia treated with 100 ng/ml TNF-α) is listed as “significantly high concentration”. Moreover, in the assay on connexin-32 (C×32), the “expression of gap junction (C×32) onto the cell surface of microglia” value is listed as “augmented”. Further, the “extent of mitochondrial damage (MTS)” value in assay [6] is “significantly mild”. The “ratio of neurons with neuritic beading degeneration as a percentage of total neurons” value in assay [4] (indirect stimulation: conditioned medium of microglia treated with 100 ng/ml cytokine for 24 h, neurons cultured 24 h) was “approximately 100%”.

These data come from patent US20090304712A1, “Neuronal Cell Death Inhibitor and Screening Method” (NATIONAL UNIVERSITY CORPORATION NAGOYA UNIVERSITY, priority 2006, published 2009).
